In patent EP4640240A1, “PEPTIDE-BASED RADIOPHARMACEUTICALS FOR NON-INVASIVE IMAGING OF THE FUNCTIONAL LIVER RESERVE” (Medizinische Universität Innsbruck, priority 2024, dated 2025):
Where two headings read alike, the source gives them in different places.

Columns and labels:
[1] = Biodistribution studies in BALB/c mice; format: in vivo; details: female, mouse, iv, total radioactivity, healthy BALB/c mice, 0.1 nmol i.v.; for tissue uptake at 10 min: 10 min p.i.; for tissue uptake at 0.5 h: 30 min p.i.; for tissue uptake at 1 h: 60 min p.i.
Protocol: For biodistribution studies 6-week-old female BALB/c mice (n=3) were injected with 0.1 nmol (100 µL, approx. 1 MBq) of labelled compound via the lateral tail vein and sacrificed after 10, 30, or 60 min by cervical dislocation. The mice were dissected, blood and organs (spleen, pancreas, stomach, intestine, liver, kidney, heart, lung, muscle and bone) were weighed and their activity measured in a γ-counter. For blocking experiments, mice were co-injected with 27.7 µmοl N-acetylgalactose.

[2] = Protein binding in human serum (MicroSpin G-50 columns); format: in vitro ADME; details: fresh human serum, 37 °C, n=3
Protocol: Protein binding was determined for different time points (2 min, 30 min, 60 min, 120 min) in triplicates using Sephadex MicroSpin G-50 columns (GE-Healthcare, Chicago, Illinois, USA). The columns were spun initially at 20,000 rcf for 1 min to remove the storage buffer. Then approx. 5 MBq of radioligand was added to 1 mL of fresh human serum and incubated at 37 °C. At each given timepoint 25 µL of the mixture was loaded on to the column, which was then spun at 20,000 rcf for 1 min. The activity content on the column (free radioligand) and in the filtrate (protein bound fraction) was quantified in a γ-counter.

[3] = Stability in human blood serum (radio-HPLC); format: in vitro ADME; details: 37 °C
Protocol: Ligand stability in human blood serum (n = 2) and PBS (pH = 6.5) (n = 1) was determined for different time points (2 min, 30 min, 60 min, 120 min). Therefore, approx. 5 MBq of radioligand was added to 1 mL of fresh human serum at 37 °C or PBS at rt. At each given time point 100 µL of the mixture were transferred to a 1.5 mL Eppendorf tube containing 100 µL of acetonitrile. The vial was vortexed and centrifuged for 2 min at 14,000 1/min before 100 µL of the supernatant were diluted with 200 µL of water and injected into analytical radio-HPLC. The PBS solution was directly injected into the radio-HPLC. Ligand stability was determined by integrating the areas of the signals in the radio chromatogram in relation to the signal of the intact ligand.

[4] = Partition coefficient logD (n-octanol/PBS); format: physicochemical; details: n=6
Protocol: For determination of logarithmic partition coefficients (logD) n-Octanol (500 µL) and PBS (500 µL) were pipetted into eight 1.5 mL Protein Low-Bind Eppendorf tubes followed by addition of 300 kBq of labelled compound. The vials were vortexed for 5 min at 1,500 1/min and then centrifuged for 5 min at 20,000 rcf (Eppendorf Centrifuge 5424). Aliquots of 100 µL were taken out of each phase and the amount of activity was quantified in a γ-counter (Perkin Elmer 2480 Wizard2 3"; Waltham, Massachusetts, USA).

[5] = Blood, read-out: Biodistribution data, Blood
[6] = Femur, read-out: Biodistribution data, Femur
[7] = Heart, read-out: Biodistribution data, Heart
[8] = Intestine, read-out: Biodistribution data, Intestine
[9] = Kidneys, read-out: Biodistribution data, Kidneys
[10] = Liver, read-out: Biodistribution data, Liver
[11] = Lung, read-out: Biodistribution data, Lung
[12] = Muscle, read-out: Biodistribution data, Muscle
[13] = Pancreas, read-out: Biodistribution data, Pancreas
[14] = Spleen, read-out: Biodistribution data, Spleen
[15] = Stomach, read-out: Biodistribution data, Stomach

NC(=O)CNC(=O)CNC(=O)[C@H](CCCCNC(=O)CCCCc1cn(C2O[C@H](CO)[C@H](O)[C@H](O)[C@H]2O)nn1)NC(=O)CNC(=O)CNC(=O)[C@H](CCCCNC(=O)CCCCc1cn(C2O[C@H](CO)[C@H](O)[C@H](O)[C@H]2O)nn1)NC(=O)CNC(=O)CNC(=O)[C@H](CCCCNC(=O)CCCCc1cn(C2O[C@H](CO)[C@H](O)[C@H](O)[C@H]2O)nn1)NC(=O)CNC(=O)CNC(=O)[C@H](CCCCNC(=O)CCCCc1cn(C2O[C@H](CO)[C@H](O)[C@H](O)[C@H]2O)nn1)NC(=O)CNC(=O)CNC(=O)[C@H](CCCCNC(=O)CCCCc1cn(C2O[C@H](CO)[C@H](O)[C@H](O)[C@H]2O)nn1)NC(=O)CNC(=O)CNC(=O)[C@H](CCCCNC(=O)CCCCc1cn(C2O[C@H](CO)[C@H](O)[C@H](O)[C@H]2O)nn1)NC(=O)CCCNC(=O)CC[C@H](C(=O)O)N1CCN(CC(=O)O)CCN(CC(=O)O)CC1 (stereo partly drawn) [[68Ga]Ga-HexaLysan, metal not drawn]
tissue uptake at 10 min [1, 5]: 2.1 ± 0.04 %ID/g | tissue uptake at 0.5 h [1, 5]: 0.63 ± 0.07 %ID/g | tissue uptake at 1 h [1, 5]: 1.05 ± 0.41 %ID/g | tissue uptake at 10 min [1, 6]: 0.48 ± 0.06 %ID/g | tissue uptake at 0.5 h [1, 6]: 0.33 ± 0.03 %ID/g | tissue uptake at 1 h [1, 6]: 0.002 ± 0.001 %ID/g | tissue uptake at 10 min [1, 7]: 0.94 ± 0.05 %ID/g | tissue uptake at 0.5 h [1, 7]: 0.37 ± 0.09 %ID/g | tissue uptake at 1 h [1, 7]: 0.25 ± 0.02 %ID/g | tissue uptake at 10 min [1, 8]: 1.19 ± 0.25 %ID/g | tissue uptake at 0.5 h [1, 8]: 3.97 ± 0.28 %ID/g | tissue uptake at 1 h [1, 8]: 5.94 ± 1.67 %ID/g | tissue uptake at 10 min [1, 9]: 4.83 ± 0.3 %ID/g | tissue uptake at 0.5 h [1, 9]: 1.94 ± 0.22 %ID/g | tissue uptake at 1 h [1, 9]: 1.34 ± 0.34 %ID/g | tissue uptake at 10 min [1, 10]: 54.8 ± 3.02 %ID/g | tissue uptake at 0.5 h [1, 10]: 55.5 ± 7.37 %ID/g | tissue uptake at 1 h [1, 10]: 45.9 ± 11.8 %ID/g | tissue uptake at 10 min [1, 11]: 1.61 ± 0.16 %ID/g | tissue uptake at 0.5 h [1, 11]: 0.77 ± 0.11 %ID/g | tissue uptake at 1 h [1, 11]: 0.62 ± 0.19 %ID/g | tissue uptake at 10 min [1, 12]: 0.93 ± 0.12 %ID/g | tissue uptake at 0.5 h [1, 12]: 0.57 ± 0.03 %ID/g | tissue uptake at 1 h [1, 12]: 0.41 ± 0.04 %ID/g | tissue uptake at 10 min [1, 13]: 0.91 ± 0.05 %ID/g | tissue uptake at 0.5 h [1, 13]: 0.69 ± 0.12 %ID/g | tissue uptake at 1 h [1, 13]: 0.48 ± 0.13 %ID/g | tissue uptake at 10 min [1, 14]: 0.5 ± 0.07 %ID/g | tissue uptake at 0.5 h [1, 14]: 0.21 ± 0.06 %ID/g | tissue uptake at 1 h [1, 14]: 0.17 ± 0.02 %ID/g | tissue uptake at 10 min [1, 15]: 1.29 ± 0.28 %ID/g | tissue uptake at 0.5 h [1, 15]: 1.19 ± 0.28 %ID/g | tissue uptake at 1 h [1, 15]: 0.4 ± 0.14 %ID/g | fraction unbound ([2]; 2 min): 0.824 | fraction unbound ([2]; 30 min): 0.782 | fraction unbound ([2]; 60 min): 0.82 | fraction unbound at 120 min, 5 MBq/mL ([2]; 120 min): 0.748 | remaining at 2 min ([3]; 2 min, n=2, read-out: Serum stability (% of intact ligand)): 99.4 ± 0.2% | Serum stability (% of intact ligand) ([3]; 30 min, n=2): 99.7 ± 0.1% | remaining at 1 h ([3]; 60 min, n=2, read-out: Serum stability (% of intact ligand)): 99.9 ± 0.1% | remaining at 2 h ([3]; 120 min, n=2, read-out: Serum stability (% of intact ligand)): 99.9 ± 0.1% | logD [4]: -4.34 ± 0.13
